In US12653808B2, “Compounds for treating multiple myeloma” (Purdue Pharma L.P., priority 2018, dated 2026):
“And” between values parts separate entries of the source, which are not always exact repeats. Equal values may be shown once.

Columns and labels:
[1] = tested on: patients with relapsed/refractory hematologic malignancies; assay: Phase 1 dose escalation trial: safety, treatment-emergent adverse events, DLT/MTD (NCI CTCAE v4.03); type: in vivo, human; details: for recommended starting dose, relapse refractory multiple myeloma: 60 minutes infusion, day 1 and day 15 of 28-day cycle
Experimental: A phase 1 trial was carried out including a dose escalation study to investigate the safety, pharmacokinetic (PK) profiles and efficacy of tinostamustine (EDO-S101) in relapsed/refractory hematologic malignancies.
The patient had relapsed/refractory hematologic malignancies for which there are no available therapies.
The assessment of dose-limiting toxicities (DLTs) was based on cycle 1 events alone. Toxicities were assessed regarding type and severity using the National Cancer Institute (NCI) Common Terminology Criteria for Adverse Events (CTCAE) version 4.03, June 2010. Toxicity data were collected for all patients throughout their time on study. Infusion site reactions were assessed using the Phlebitis Scale developed by the Infusion Nurses Society (2011).
DLTs, which were at least possibly related to study drug, were defined as: • Any Grade 3 or 4 non-hematologic toxicity (excluding alopecia and easily correctable electrolyte abnormalities); • Nausea, vomiting or diarrhoea that persists beyond 10 days despite aggressive symptomatic treatment; • Grade 4 neutropenia or thrombocytopenia lasting for 7 days or more; • Any grade 2 or more toxicity, but persist for over 3 weeks; and • Any toxicity resulting in a delay of the next dose administration (cycle 2 day 1≥14).
To ensure patients' safety, the stopping rules were implemented to the dose escalation stage of the study.
(§1) Other safety assessments included physical examinations, Eastern Cooperative Oncology Group (ECOG) performance status determinations, electrocardiograms (ECGs), pregnancy testing for women of childbearing potential, documentation of treatment-emergent adverse events (TEAEs), clinical laboratory evaluations including haematology, blood chemistry and urinalysis, vital signs, and documentation of concomitant medication usage.
If there is no DLT observed in any of these subjects, the trial proceeds to enroll additional subjects into the next higher dose cohort. If one subject develops a DLT at a specific dose, an additional three subjects are enrolled into that same dose cohort.

[2] = PK assessment: plasma concentrations of tinostamustine and metabolites M2 and M8, cycle 1 day one; type: in vivo, human
Experimental: Plasma samples were collected to determine the concentrations of tinostamustine and its metabolites (labelled M2 and M8) by a method fully validated according to the relevant guidelines. The PK profiles of tinostamustine in plasma were assessed in each patient in the escalation stage of the study, in cycle 1 only.
Patients of all cohorts and over all dose levels were sampled according to the following schedule: 0.5 hours prior to dose administration, and at 15, 30 and 45 minutes and 1, 1.25, 1.50, 2, 3, 8, 24, 48 and 72 hours from the start of tinostamustine infusion. Plasma samples were collected according to the Laboratory Manual for the determination of tinostamustine and metabolites M2 and M8 concentrations using a method fully validated according to the relevant guidelines.

[3] = Compartmental population PK analysis of tinostamustine; type: in vivo, human; details: dose range 20 to 120 mg/m^2, infusion times 30 to 60 minutes
Experimental: A compartmental population PK analysis of tinostamustine was conducted to characterize its concentration-time profiles and its dependency on patient factors. For the analysis, the 24 hours plasma concentrations of tinostamustine at day one from 36 patients was used from whom the data was available. The concentration-time profiles were best described with a two-compartmental model with first order clearance from the central compartment.

[4] = tested on: relapsed/refractory hematologic malignancies; assay: Tumour assessment: response to treatment, all HM; type: in vivo, human; details: all 46 patients
Text: (§2) Response to treatment included evaluation of overall response rate (patients with a CR plus patients with a PR), clinical benefit (CB) rate (patients with CR plus patients with PR plus patients with stable disease (SD)), progression free survival, and overall survival according to the relevant response criteria.

[5] = tested on: lymphoma (Hodgkin and non-Hodgkin); assay: Tumour assessment: response to treatment, patients with lymphoma; type: in vivo, human; details: 27 patients with lymphoma
Text: as §2

multiple myeloma [6] = assay: Tumour assessment: response to treatment, patients with multiple myeloma; type: in vivo, human; details: 19 patients with MM
Text: as §2

[7] = tested on: patients with relapsed/refractory hematologic malignancies; assay: Cardiac safety: electrocardiograms and cardiac disorders; type: in vivo, human
Text: as §1

[8] = tested on: patients with relapsed/refractory hematologic malignancies; assay: Biochemistry: clinical chemistry abnormalities and TEAEs; type: in vivo, human
Text: as §1

multiple myeloma [9] = details: López-Iglesias et al, J Hematol Oncol 2017, 10, 127; cited from earlier work
[10] = all cohorts administered over 30 or 45 minutes
[11] = doses of 20 to 80 mg/m^2, 60 min cohorts
[12] = doses of 100 or 120 mg/m^2, 60 min cohorts

Cn1c(CCCCCCC(=O)NO)nc2cc(N(CCCl)CCCl)ccc21 [tinostamustine]
patients with Grade 3 and 4 thrombocytopenia in C2 and C3 leading to withdrawal ([1]; 100 mg/m^2 over 60 minutes): three patients
DLT ([1]; 120 mg/m^2, lymphoma cohort): Thrombocytopenia
serious thrombocytopenia (grade 3), also led to study discontinuation ([1]; HM120/60 cohort patient, of all patients): 2%
TEAE with outcome of death ([1]; Patients (N = 46), number (percent)): 0 (0)
leukopenia, incidence ([1]; administered over 30 or 45 minutes): 16%
leukopenia, incidence ([1]; administered over 60 minutes): 27%
thrombocytopenia, incidence ([1]; administered over 60 minutes): 58%
SAE dyspnea, hypersensitivity, osteomyelitis, pleural effusion, pneumonia, and thrombocytopenia (each) ([1]; all 46 patients): 2%
SAE febrile neutropenia and sepsis (each) ([1]; all 46 patients): 2%
all other TEAEs, incidence ([1]; all 46 patients): < 20%
discontinuation because of adverse events (AE) ([1]; all 46 patients): 29%
grade 3/4 anemia, incidence ([1]; all 46 patients): 22%
grade 3/4 leukopenia/WBC decreased, incidence ([1]; all 46 patients): 15% and 16%
grade 3/4 lymphopenia, incidence ([1]; all 46 patients): 8.6%
grade 3/4 neutropenia/neutrophil count decreased, incidence ([1]; all 46 patients): 29%
grade 3/4 thrombocytopenia, incidence ([1]; all 46 patients): 39% and 40%
nausea, incidence ([1]; all 46 patients): 29%
other TEAEs leading to study drug discontinuation (anaphylactic reaction, febrile neutropenia, hypersensitivity, pleural effusion, pruritus; each) ([1]; all 46 patients): 2%
patients with at least one TEAE considered study drug-related ([1]; all 46 patients): 38 patients
anaemia, incidence ([1]; all 46 patients, any grade): 39%
leukopenia/WBC decreased, incidence ([1]; all 46 patients, any grade): 21% and 22%
neutropenia/neutrophil count decreased, incidence ([1]; all 46 patients, any grade): 29% and 28%
thrombocytopenia/platelet count decreased, incidence ([1]; all 46 patients, any grade): 52%
anaemia, incidence [1, 10]: 37%
thrombocytopenia, incidence [1, 10]: 47%
recommended starting dose, relapse refractory multiple myeloma ([1]; baseline platelet count 100×10^9/L): 50 mg/m^2
recommended starting dose, relapse refractory multiple myeloma ([1]; baseline platelet count >100×10^9/L): 60 mg/m^2
grade 3 or 4 anaemia, incidence ([1]; doses of 20 to 80 mg/m^2): 8%
anaemia, incidence [1, 11]: 25%
grade 3/4 thrombocytopenia, incidence [1, 11]: 8%
leukopenia, incidence [1, 11]: 17%
neutropenia, incidence [1, 11]: 25%
grade 3 or 4 anaemia, incidence ([1]; doses of 100 or 120 mg/m^2): 36%
anaemia, incidence [1, 12]: 64%
grade 3/4 thrombocytopenia, incidence [1, 12]: 71%
leukopenia, incidence [1, 12]: 36%
neutropenia, incidence [1, 12]: 50%
patients who experienced DLTs ([1]; lymphoma cohort, 120 mg/m^2 over 1 hour): Two out of six
neutropenia, incidence ([1]; shorter infusion times): 16%
Cmax Mean (SD) ([2]; dose 60 mg/m^2, infusion time 30 minutes): 1724 (1416) ng/mL
AUC Mean (SD) ([2]; dose 80 mg/m^2, infusion time 60 minutes): 902 (653) h · ng/mL
AUC Mean (SD) ([2]; dose 120 mg/m^2, infusion time 60 minutes): 1638 (578) h · ng/mL
dose linearity of PK [3]: dose-linear
best response PD [4]: 41%
best response PD [5]: 37%
best response PD (multiple myeloma [6]): 47%
treatment-emergent ECG abnormality indicated to be clinically significant ([7]; all patients): No patient
treatment-emergent QTcF interval >500 msec ([7]; all patients): One patient
prolonged QTcF interval ([7]; one subject, MM 80/45 cohort, discontinuation visit three weeks after only dose, screening QTcF 423 msec): 677 ms
cardiac disorder considered study drug-related (grade 1 palpitations) ([7]; overall): 2%
C-reactive protein increased TEAE ([8]; all patients): 4%
blood creatinine increased TEAE ([8]; all patients): 9%
blood potassium decreased/hypokalemia TEAE ([8]; all patients): 11%
grade 3 hyperuricemia TEAE ([8]; considered unrelated to study drug): 2%
treatment-emergent shift to grade 3 aspartate aminotransferase increased and grade 3 hypoalbuminemia (each) ([8]; patients with normal or grade 1 or 2 values at baseline): 2%
activity in in vitro and in vivo models against multiple myeloma (multiple myeloma [9]): potent activity
